Measured values as given in paper PMC6979384, “Characterization of the plant homeodomain (PHD) reader family for their histone tail interactions” (Epigenetics & Chromatin, 2020).

What was measured:
Assay in all cases: Histone peptide microarray
Assay type in all cases: binding, human
AIRE (PP) = conditions: GST-tagged AIRE (PP); sheet Array Heatmap; each array performed twice, total n = 4
Description: (§1) To more comprehensively define the histone interactions of the 31 PHD readers identified from the domain microarray analyses, we probed each on an alternate microarray platform containing a library of 293 synthetic histone peptides with single or combinatorial PTMs (Additional file 2: Figure S4 and Additional file 3: Table S2).
(§2) The 31 GST-tagged PHD readers identified in the PHD finger domain array were expressed and purified as previously. Histone peptide arrays and peptide pulldown assays were conducted as recently described (specifically, the optimized protocol from Petell et al. for the former).
(§3) Supplementary file 13072_2020_328_MOESM3_ESM.xlsx: Additional file 3: Table S2. […] Excel Tab Peptide List is a compiled list of the entire 293 histone peptide library with amino acid sequence ranges. […] Each number corresponds to the peptide number designated in Peptide List. Excel Tab Average Signals is a compiled set of binding data: chromatin reader at 0.5 μM vs. entire 293 peptide library. Data is presented as the average and standard deviation of 4 replicates. The average signals are colored to indicate signal intensity with green being strong and white being weak/low. […] Key: red= stronger relative binding; blue = weaker relative binding. Excel Tab Array info summary is a table summarizing the domains, sequence coverage, array signal range, and noise for each of the GST-tagged readers assayed on the peptide microarrays.

BAZ2B = conditions: GST-tagged BAZ2B; sheet Array Heatmap; each array performed twice, total n = 4
Description: as §1, §2, §3

BPTF (PB) = conditions: GST-tagged BPTF (PB = PHD + Bromodomain); sheet Array Heatmap; each array performed twice, total n = 4
Description: as §1, §2, §3

CHD4 (PPCC) = conditions: GST-tagged CHD4 (PPCC = Dual PHD + Dual Chromodomain); sheet Array Heatmap; each array performed twice, total n = 4
Description: as §1, §2, §3

CHD5 (PCC) = conditions: GST-tagged CHD5 (PCC = PHD + Dual Chromodomain); sheet Array Heatmap; each array performed twice, total n = 4
Description: as §1, §2, §3

CHD5 (PPCC) = conditions: GST-tagged CHD5 (PPCC = Dual PHD + Dual Chromodomain); sheet Array Heatmap; each array performed twice, total n = 4
Description: as §1, §2, §3

DIDO1 = conditions: GST-tagged DIDO1; sheet Array Heatmap; each array performed twice, total n = 4
Description: as §1, §2, §3

DPF2 (PPC2W2) = conditions: GST-tagged DPF2 (PPC2W2 = Dual PHD + C2W2-type Zn-finger); sheet Array Heatmap; each array performed twice, total n = 4
Description: as §1, §2, §3

ING1 = conditions: GST-tagged ING1; sheet Array Heatmap; each array performed twice, total n = 4
Description: as §1, §2, §3

ING2 = conditions: GST-tagged ING2; sheet Array Heatmap; each array performed twice, total n = 4
Description: as §1, §2, §3

ING3 = conditions: GST-tagged ING3; sheet Array Heatmap; each array performed twice, total n = 4
Description: as §1, §2, §3

ING4 = conditions: GST-tagged ING4; sheet Array Heatmap; each array performed twice, total n = 4
Description: as §1, §2, §3

ING5 = conditions: GST-tagged ING5; sheet Array Heatmap; each array performed twice, total n = 4
Description: as §1, §2, §3

KDM4C (TTP) = conditions: GST-tagged KDM4C (TTP = Tandem Tudor domain + PHD); sheet Array Heatmap; each array performed twice, total n = 4
Description: as §1, §2, §3

KDM5A (1) = conditions: GST-tagged KDM5A (1); sheet Array Heatmap; each array performed twice, total n = 4
Description: as §1, §2, §3

KDM5A (3) = conditions: GST-tagged KDM5A (3); sheet Array Heatmap; each array performed twice, total n = 4
Description: as §1, §2, §3

KDM5B (1) = conditions: GST-tagged KDM5B (1); sheet Array Heatmap; each array performed twice, total n = 4
Description: as §1, §2, §3

KDM5B (3) = conditions: GST-tagged KDM5B (3); sheet Array Heatmap; each array performed twice, total n = 4
Description: as §1, §2, §3

KDM7A = conditions: GST-tagged KDM7A; sheet Array Heatmap; each array performed twice, total n = 4
Description: as §1, §2, §3

MLL5 = conditions: GST-tagged MLL5; sheet Array Heatmap; each array performed twice, total n = 4
Description: as §1, §2, §3

MORC3 (CW) = conditions: GST-tagged MORC3 (CW = CW-type Zn-finger); sheet Array Heatmap; each array performed twice, total n = 4
Description: as §1, §2, §3

PHF13 = conditions: GST-tagged PHF13; sheet Array Heatmap; each array performed twice, total n = 4
Description: as §1, §2, §3

PHF21A = conditions: GST-tagged PHF21A; sheet Array Heatmap; each array performed twice, total n = 4
Description: as §1, §2, §3

PHF23 = conditions: GST-tagged PHF23; sheet Array Heatmap; each array performed twice, total n = 4
Description: as §1, §2, §3

PHF2 = conditions: GST-tagged PHF2; sheet Array Heatmap; each array performed twice, total n = 4
Description: as §1, §2, §3

PHF8 = conditions: GST-tagged PHF8; sheet Array Heatmap; each array performed twice, total n = 4
Description: as §1, §2, §3

PHRF1 (RP) = conditions: GST-tagged PHRF1 (RP); sheet Array Heatmap; each array performed twice, total n = 4
Description: as §1, §2, §3

RAG2 = conditions: GST-tagged RAG2; sheet Array Heatmap; each array performed twice, total n = 4
Description: as §1, §2, §3

TAF3 = conditions: GST-tagged TAF3; sheet Array Heatmap; each array performed twice, total n = 4
Description: as §1, §2, §3

TRIM66 (PB) = conditions: GST-tagged TRIM66 (PB = PHD + Bromodomain); sheet Array Heatmap; each array performed twice, total n = 4
Description: as §1, §2, §3

SP140L = conditions: GST-tagged SP140L; sheet Array Heatmap; each array performed twice, total n = 4
Description: as §1, §2, §3

H3K4me1 + K9ac + K14ac + K18ac: H3 1-20 was tested, and the “Array Heatmap signal (histone peptide microarray)” value (“Array Heatmap signal” for short) (AIRE (PP)) was 0.4902, the “Array Heatmap signal” value (BAZ2B) was 0.6125 and the “Array Heatmap signal” value (BPTF (PB)) was 0.3783. For the same substance, the “Array Heatmap signal” value (CHD4 (PPCC)) was 0.5742, the “Array Heatmap signal” value (CHD5 (PCC)) was 0.872 and the “Array Heatmap signal” value (CHD5 (PPCC)) was 0.5902. For the same substance, the “Array Heatmap signal” value (DIDO1) was 0.6756, the “Array Heatmap signal” value (DPF2 (PPC2W2)) was 0.8362 and the “Array Heatmap signal” value (ING1) was 0.5616. The “Array Heatmap signal” value (ING2) was 0.6379, the “Array Heatmap signal” value (ING3) was 0.5358 and the “Array Heatmap signal” value (ING4) was 0.4842. The “Array Heatmap signal” value (ING5) was 0.3909, the “Array Heatmap signal” value (KDM4C (TTP)) was 0.5283 and the “Array Heatmap signal” value (KDM5A (1)) was 0.5061. The “Array Heatmap signal” value (KDM5A (3)) was 0.582, the “Array Heatmap signal” value (KDM5B (1)) was 0.6974 and the “Array Heatmap signal” value (KDM5B (3)) was 0.5937. For the same substance, the “Array Heatmap signal” value (KDM7A) was 0.3735, the “Array Heatmap signal” value (MLL5) was 0.5474 and the “Array Heatmap signal” value (MORC3 (CW)) was 0.6558. For the same substance, the “Array Heatmap signal” value (PHF13) was 0.6456, the “Array Heatmap signal” value (PHF21A) was 0.4842 and the “Array Heatmap signal” value (PHF23) was 0.5995. The “Array Heatmap signal” value (PHF2) was 0.5275, the “Array Heatmap signal” value (PHF8) was 0.4393 and the “Array Heatmap signal” value (PHRF1 (RP)) was 0.6901. The “Array Heatmap signal” value (RAG2) was 0.2881, the “Array Heatmap signal” value (TAF3) was 0.2961 and the “Array Heatmap signal” value (TRIM66 (PB)) was 0.6139.
For H3K4me3 + S10p: H3 1-20, the “Array Heatmap signal” value (AIRE (PP)) was 0.4865, the “Array Heatmap signal” value (BAZ2B) was 0.4888 and the “Array Heatmap signal” value (BPTF (PB)) was 0.4763. The “Array Heatmap signal” value (CHD4 (PPCC)) was 0.5979, the “Array Heatmap signal” value (CHD5 (PCC)) was 0.823 and the “Array Heatmap signal” value (DIDO1) was 0.8088. The “Array Heatmap signal” value (DPF2 (PPC2W2)) was 0.6728, the “Array Heatmap signal” value (ING1) was 0.7399 and the “Array Heatmap signal” value (ING2) was 0.7902. For the same substance, the “Array Heatmap signal” value (ING3) was 0.5974, the “Array Heatmap signal” value (ING4) was 0.5113 and the “Array Heatmap signal” value (ING5) was 0.452. For the same substance, the “Array Heatmap signal” value (KDM4C (TTP)) was 0.6416, the “Array Heatmap signal” value (KDM5A (1)) was 0.4961 and the “Array Heatmap signal” value (KDM5A (3)) was 0.9343. The “Array Heatmap signal” value (KDM5B (1)) was 0.7367, the “Array Heatmap signal” value (KDM5B (3)) was 0.6326 and the “Array Heatmap signal” value (KDM7A) was 0.6944. For the same substance, the “Array Heatmap signal” value (MLL5) was 0.8699, the “Array Heatmap signal” value (MORC3 (CW)) was 0.8974 and the “Array Heatmap signal” value (PHF13) was 0.6968. For the same substance, the “Array Heatmap signal” value (PHF21A) was 0.4924, the “Array Heatmap signal” value (PHF23) was 0.7051 and the “Array Heatmap signal” value (PHF2) was 0.6926. The “Array Heatmap signal” value (PHF8) was 0.7298, the “Array Heatmap signal” value (PHRF1 (RP)) was 0.4961 and the “Array Heatmap signal” value (RAG2) was 0.5128. The “Array Heatmap signal” value (SP140L) was 0.3516, the “Array Heatmap signal” value (TAF3) was 0.4497 and the “Array Heatmap signal” value (TRIM66 (PB)) was 0.6387.
